Legend:
Type in all cases: in vivo, mice
EMT6 = test: Syngeneic subcutaneous tumour growth inhibition, EMT6 (Study 2); conditions: Breast, EMT6, SDF-1 42 FPKM; 641 50 mg/kg p.o. 5 days out of 7; anti-PD1 10 mg/kg i.p. twice weekly for 3 weeks; vs vehicle group
Experimental: (§1) Four syngeneic cell lines (EMT-6, H22, CT26, B16F10small) were cultured and when in exponential growth were inoculated in mice subcutaneously with tumour cells in 0.1 mL of PBS for tumour development. After the mean tumour size reached approximately 80-120 mm^3 the mice were treated with anti-PD1 antibody (clone RMP1-14) (10 mg/kg i.p. twice weekly for 3 weeks) or 6-{4-[1-(Propan-2-yl)piperidin-4-yl]-1,4-diazepan-1-yl}-N-(pyridin-4-yl)pyridine-2-carboxamide (50 mg/kg p.o. 5 days out of 7), or a combination of the two treatments. Tumour volumes were measured twice weekly at least in two dimensions using a caliper, and the volume expressed in mm^3 using the formula: V=0.5 a×b^2 where a and b are the long and short diameters of the tumour, respectively. Tumour growth was measured and inhibition of tumour growth reported in comparison to a vehicle treated group. All groups contained 8 mice. If the tumours in a group reached an average volume of 2000 mm^3, the experiment was terminated.
(§2) SDF-1 levels were measured by RNA sequencing and are expressed as fragments read per million mapped reads per kilobase of transcript (FPKM). FPKM is normalised to all the fragments read and to the length of the genes, and so is in effect a ratio of the number of SDF-1 reads to all the other genes read multiplied by one million.

H22 = test: Syngeneic subcutaneous tumour growth inhibition, H22 (Study 2); conditions: Liver, H22, SDF-1 26 FPKM; 641 50 mg/kg p.o. 5 days out of 7; anti-PD1 10 mg/kg i.p. twice weekly for 3 weeks; vs vehicle group
Experimental: as §1, §2

CT26 = test: Syngeneic subcutaneous tumour growth inhibition, CT26 (Study 2); conditions: Colorectal, CT26, SDF-1 17 FPKM; 641 50 mg/kg p.o. 5 days out of 7; anti-PD1 10 mg/kg i.p. twice weekly for 3 weeks; vs vehicle group
Experimental: as §1, §2

B16F10 small = test: Syngeneic subcutaneous tumour growth inhibition, B16F10 small (Study 2); conditions: Melanoma, SDF-1 4 FPKM, 641 50 mg/kg p.o. 5 days out of 7, anti-PD1 10 mg/kg i.p. twice weekly for 3 weeks, vs vehicle group
Experimental: as §1, §2

For `CC(C)N1CCC(N2CCCN(c3cccc(C(=O)Nc4ccncc4)n3)CC2)CC1` [compound 641, 6-{4-[1-(Propan-2-yl)piperidin-4-yl]-1,4-diazepan-1-yl}-N-(pyridin-4-yl)pyridine-2-carboxamide], the “% inhibition of tumour growth relative to control” value (EMT6) was 79.8%, the “% inhibition of tumour growth relative to control” value (H22) was 20.1% and the “% inhibition of tumour growth relative to control” value (CT26) was 32.1%. The “% inhibition of tumour growth relative to control” value (B16F10 small) was 0%.

— patent publication US11369616B2, “Drug combination and its use in therapy” (Proximagen, LLC, priority 2016, dated 2022)
